{"source": "the NIST ThermoML archive (doi:10.1007/s10765-012-1159-3)", "settings": "101.33 kPa, Liquid; for kinematic viscosity: Capillary tube (Ostwald / Ubbelohde) method; for mass density: Vibrating tube method", "note": "Numbers after ± are expanded uncertainties."}
{"compound": "C1CCCCC1", "note": "[cyclohexane]", "values": [{"measurement": "kinematic viscosity", "setting": "293.15 K", "result": "1.256e-06 ± 1.1e-08", "unit": "m2/s"}, {"measurement": "mass density", "setting": "293.15 K", "result": "778.7 ± 0.6", "unit": "kg/m3"}, {"measurement": "kinematic viscosity", "setting": "298.15 K", "result": "1.154e-06 ± 1e-08", "unit": "m2/s"}, {"measurement": "mass density", "setting": "298.15 K", "result": "773.9 ± 0.6", "unit": "kg/m3"}]}
{"compound": "CCc1ccccc1", "note": "[ethylbenzene]", "values": [{"measurement": "kinematic viscosity", "setting": "293.15 K", "result": "7.767e-07 ± 7.4e-09", "unit": "m2/s"}, {"measurement": "mass density", "setting": "293.15 K", "result": "867.1 ± 0.6", "unit": "kg/m3"}, {"measurement": "kinematic viscosity", "setting": "298.15 K", "result": "7.323e-07 ± 7.2e-09", "unit": "m2/s"}, {"measurement": "mass density", "setting": "298.15 K", "result": "862.7 ± 0.6", "unit": "kg/m3"}]}
{"compound": "CCCCCC", "note": "[hexane]", "values": [{"measurement": "kinematic viscosity", "setting": "293.15 K", "result": "4.7e-07 ± 5.6e-09", "unit": "m2/s"}, {"measurement": "mass density", "setting": "293.15 K", "result": "659.4 ± 0.6", "unit": "kg/m3"}, {"measurement": "kinematic viscosity", "setting": "298.15 K", "result": "4.49e-07 ± 5.5e-09", "unit": "m2/s"}, {"measurement": "mass density", "setting": "298.15 K", "result": "654.9 ± 0.6", "unit": "kg/m3"}]}
{"compound": "CCCCCCCC", "note": "[octane]", "values": [{"measurement": "kinematic viscosity", "setting": "293.15 K", "result": "7.734e-07 ± 7.4e-09", "unit": "m2/s"}, {"measurement": "mass density", "setting": "293.15 K", "result": "702.5 ± 0.6", "unit": "kg/m3"}, {"measurement": "kinematic viscosity", "setting": "298.15 K", "result": "7.313e-07 ± 7.1e-09", "unit": "m2/s"}, {"measurement": "mass density", "setting": "298.15 K", "result": "698.5 ± 0.6", "unit": "kg/m3"}]}
{"compound": "Cc1ccccc1", "note": "[toluene]", "values": [{"measurement": "kinematic viscosity", "setting": "293.15 K", "result": "6.8e-07 ± 6.8e-09", "unit": "m2/s"}, {"measurement": "mass density", "setting": "293.15 K", "result": "866.7 ± 0.6", "unit": "kg/m3"}, {"measurement": "kinematic viscosity", "setting": "298.15 K", "result": "6.41e-07 ± 6.6e-09", "unit": "m2/s"}, {"measurement": "mass density", "setting": "298.15 K", "result": "862 ± 0.6", "unit": "kg/m3"}]}
